{
  "source": "ChEMBL document CHEMBL5329165",
  "about": "“Design, synthesis and biological evaluation of phenanthridine amide and 1,2,3-triazole analogues against Mycobacterium tuberculosis” (RSC Med Chem, 2023)",
  "system": "Mycobacterium tuberculosis",
  "experiment": "Antimycobacterial activity against Mycobacterium tuberculosis H37Ra transformed with pSMT1 luciferase reporter plasmid incubated for 7 days by luminometric assay",
  "type": "functional",
  "details": "168 h, time 7 day",
  "data": [
    {"smiles": "O=C(Nc1ccc(N2CCN(C(=O)c3cnccn3)CC2)nc1)c1ccccc1", "values": [
      {"measurement": "MIC", "result": 1.46, "unit": "µM"}
    ]}
  ]
}
